Measured values as given in ChEMBL document CHEMBL4715829, “Heterodimeric Rifampicin-Tobramycin conjugates break intrinsic resistance of Pseudomonas aeruginosa to doxycycline and chloramphenicol in vitro and in a Galleria mellonella in vivo model” (Eur J Med Chem, 2019).
≈ marks a conversion by molar mass, not a printed value.

Key:
Staphylococcus aureus [1] = experiment: Antibacterial activity against methicillin-resistance Staphylococcus aureus ATCC 33592 assessed as reduction in bacterial growth incubated for 18 hrs by broth microdilution assay; type: functional
Escherichia coli [2] = experiment: Antibacterial activity against gentamicin, tobramycin, ciprofloxacin-resistant Escherichia coli ATCC 97615 harboring aac(3')IIa gene assessed as reduction in bacterial growth incubated for 18 hrs by broth microdilution assay; type: functional
Enterococcus faecalis = experiment: Antibacterial activity against Enterococcus faecalis ATCC 29212 assessed as reduction in bacterial growth incubated for 18 hrs by broth microdilution assay; type: functional
Pseudomonas aeruginosa [3] = experiment: Antibacterial activity against Pseudomonas aeruginosa PAO1 assessed as reduction in bacterial growth by measuring tigecycline MIC at <=10 uM in presence of tigecycline incubated for 18 hrs by broth microdilution assay based checkerboard assay (reference value: 4 microg/ml); type: functional; settings: dose microM <=10
Pseudomonas aeruginosa [4] = experiment: Antibacterial activity against Pseudomonas aeruginosa PAO1 assessed as reduction in bacterial growth by measuring rifampicin MIC at <=[…] uM in presence of rifampicin incubated for 18 hrs by broth microdilution assay based checkerboard assay (reference value: […] microg/ml); type: functional; settings: dose microM <=10
Pseudomonas aeruginosa [5] = experiment: Antibacterial activity against Pseudomonas aeruginosa 114228 assessed as reduction in bacterial growth incubated for 18 hrs by broth microdilution assay; type: functional
Staphylococcus aureus [6] = experiment: Antibacterial activity against Staphylococcus aureus ATCC 29213 assessed as reduction in bacterial growth incubated for 18 hrs by broth microdilution assay; type: functional
Pseudomonas aeruginosa [7] = experiment: Antibacterial activity against Pseudomonas aeruginosa PAO1 assessed as fractional inhibitory concentration index in presence of Linezolid incubated for 18 hrs by broth microdilution assay based checkerboard assay; type: functional
Pseudomonas aeruginosa [8] = experiment: Antibacterial activity against Pseudomonas aeruginosa PAO1 assessed as reduction in bacterial growth by measuring aztreonam MIC at <=10 uM in presence of aztreonam incubated for 18 hrs by broth microdilution assay based checkerboard assay (reference value: 4 microg/ml); type: functional; settings: dose microM <=10
[9] = tested on: Staphylococcus epidermidis; experiment: Antibacterial activity against methicillin-susceptible Staphylococcus epidermidis CANWARD 81388 assessed as reduction in bacterial growth incubated for 18 hrs by broth microdilution assay; type: functional
Pseudomonas aeruginosa [10] = experiment: Antibacterial activity against Pseudomonas aeruginosa PAO1 assessed as reduction in bacterial growth by measuring vancomycin MIC at <=10 uM in presence of vancomycin incubated for 18 hrs by broth microdilution assay based checkerboard assay (reference value: 256 microg/ml); type: functional; settings: dose microM <=10
Pseudomonas aeruginosa [11] = experiment: Antibacterial activity against Pseudomonas aeruginosa 101885 assessed as reduction in bacterial growth incubated for 18 hrs by broth microdilution assay; type: functional
[12] = Cytotoxicity against human HEK293 cells assessed as cell viability at 50 uM incubated for 48 hrs by prestoblue assay; type: cell-based; settings: read-out: Activity
[13] = Cytotoxicity against human HEK293 cells assessed as cell viability at <10 uM incubated for 48 hrs by prestoblue assay; type: cell-based; settings: read-out: Activity
Escherichia coli [14] = experiment: Antibacterial activity against Escherichia coli CAN-ICU 63074 (AMK 32) assessed as reduction in bacterial growth incubated for 18 hrs by broth microdilution assay; type: functional
Pseudomonas aeruginosa [15] = experiment: Antibacterial activity against Pseudomonas aeruginosa 259-96918 assessed as fractional inhibitory concentration index in presence of doxycycline incubated for 18 hrs by broth microdilution assay; type: functional
Streptococcus pneumoniae = experiment: Antibacterial activity against Streptococcus pneumoniae ATCC 49619 assessed as reduction in bacterial growth incubated for 18 hrs by broth microdilution assay; type: functional
Pseudomonas aeruginosa [16] = experiment: Antibacterial activity against Pseudomonas aeruginosa PAO1 assessed as reduction in bacterial growth by measuring ceftazidime MIC at <=10 uM in presence of ceftazidime incubated for 18 hrs by broth microdilution assay based checkerboard assay (reference value: 2 microg/ml); type: functional; settings: dose microM <=10
Escherichia coli [17] = experiment: Antibacterial activity against Escherichia coli ATCC 25922 assessed as reduction in bacterial growth incubated for 18 hrs by broth microdilution assay; type: functional
Pseudomonas aeruginosa [18] = experiment: Antibacterial activity against Pseudomonas aeruginosa PAO1 assessed as fractional inhibitory concentration index in presence of Ceftazidime incubated for 18 hrs by broth microdilution assay based checkerboard assay; type: functional
Pseudomonas aeruginosa [19] = experiment: Antibacterial activity against Pseudomonas aeruginosa 101243 assessed as reduction in bacterial growth incubated for 18 hrs by broth microdilution assay; type: functional
Pseudomonas aeruginosa [20] = experiment: Antibacterial activity against Pseudomonas aeruginosa PAO1 assessed as fractional inhibitory concentration index in presence of Meropenem incubated for 18 hrs by broth microdilution assay based checkerboard assay; type: functional
Pseudomonas aeruginosa [21] = experiment: Antibacterial activity against Pseudomonas aeruginosa PAO1 assessed as fractional inhibitory concentration index in presence of Doxycycline incubated for 18 hrs by broth microdilution assay based checkerboard assay; type: functional
Pseudomonas aeruginosa [22] = experiment: Antibacterial activity against Pseudomonas aeruginosa 260-97103 assessed as fractional inhibitory concentration index in presence of chloramphenicol incubated for 18 hrs by broth microdilution assay; type: functional
Pseudomonas aeruginosa [23] = experiment: Antibacterial activity against Pseudomonas aeruginosa PAO1 assessed as fractional inhibitory concentration index in presence of Chloramphenicol incubated for 18 hrs by broth microdilution assay based checkerboard assay; type: functional
Pseudomonas aeruginosa [24] = experiment: Antibacterial activity against Pseudomonas aeruginosa 259-96918 assessed as fractional inhibitory concentration index in presence of chloramphenicol incubated for 18 hrs by broth microdilution assay; type: functional
Pseudomonas aeruginosa [25] = experiment: Antibacterial activity against Pseudomonas aeruginosa 750 harboring efflux mutant assessed as reduction in bacterial growth incubated for 18 hrs by broth microdilution assay; type: functional
Pseudomonas aeruginosa [26] = experiment: Antibacterial activity against Pseudomonas aeruginosa 100036 assessed as reduction in bacterial growth incubated for 18 hrs by broth microdilution assay; type: functional
Pseudomonas aeruginosa [27] = experiment: Antibacterial activity against Pseudomonas aeruginosa 91433 assessed as reduction in bacterial growth incubated for 18 hrs by broth microdilution assay; type: functional
Pseudomonas aeruginosa [28] = experiment: Antibacterial activity against Pseudomonas aeruginosa 100036 assessed as fractional inhibitory concentration index in presence of chloramphenicol incubated for 18 hrs by broth microdilution assay; type: functional
Pseudomonas aeruginosa [29] = experiment: Antibacterial activity against Pseudomonas aeruginosa 262-101856 assessed as fractional inhibitory concentration index in presence of doxycycline incubated for 18 hrs by broth microdilution assay; type: functional
Pseudomonas aeruginosa [30] = experiment: Antibacterial activity against Pseudomonas aeruginosa PAO1 assessed as fractional inhibitory concentration index in presence of Moxifloxacin incubated for 18 hrs by broth microdilution assay based checkerboard assay; type: functional
[31] = Cytotoxicity against human HepG2 cells assessed as cell viability at 50 uM incubated for 48 hrs by prestoblue assay; type: cell-based; settings: read-out: Activity
Pseudomonas aeruginosa [32] = experiment: Antibacterial activity against Pseudomonas aeruginosa 259-96918 assessed as reduction in bacterial growth incubated for 18 hrs by broth microdilution assay; type: functional
Pseudomonas aeruginosa [33] = experiment: Antibacterial activity against Pseudomonas aeruginosa 260-97103 assessed as fractional inhibitory concentration index in presence of doxycycline incubated for 18 hrs by broth microdilution assay; type: functional
Pseudomonas aeruginosa [34] = experiment: Antibacterial activity against wild type Pseudomonas aeruginosa PAO1 assessed as reduction in bacterial growth incubated for 18 hrs by broth microdilution assay; type: functional
Pseudomonas aeruginosa [35] = experiment: Antibacterial activity against Pseudomonas aeruginosa PAO1 assessed as reduction in bacterial growth by measuring tobramycin MIC at <=10 uM in presence of tobramycin incubated for 18 hrs by broth microdilution assay based checkerboard assay (reference value: 1 microg/ml); type: functional; settings: dose microM <=10
Pseudomonas aeruginosa [36] = experiment: Antibacterial activity against Pseudomonas aeruginosa PAO1 assessed as reduction in bacterial growth by measuring linezolid MIC at <=10 uM in presence of linezolid incubated for 18 hrs by broth microdilution assay based checkerboard assay (reference value: 1024 microg/ml); type: functional; settings: dose microM <=10

Row | SMILES | MIC (Staphylococcus aureus [1]) | MIC (Escherichia coli [2]) | MIC (Enterococcus faecalis) | MIC (Pseudomonas aeruginosa [5]) | MIC (Staphylococcus aureus [6]) | MIC [9] | MIC (Pseudomonas aeruginosa [11]) | MIC (Escherichia coli [14]) | MIC (Streptococcus pneumoniae) | MIC (Escherichia coli [17]) | MIC (Pseudomonas aeruginosa [19]) | MIC (Pseudomonas aeruginosa [25]) | MIC (Pseudomonas aeruginosa [26]) | MIC (Pseudomonas aeruginosa [27]) | fractional inhibitory concentration index (FICI) (Pseudomonas aeruginosa [28]) | fractional inhibitory concentration index (FICI) (Pseudomonas aeruginosa [29]) | MIC (Pseudomonas aeruginosa [32]) | MIC (Pseudomonas aeruginosa [34]) | also measured
1 | CO[C@H]1/C=C/O[C@@]2(C)Oc3c(C)c(O)c4c(O)c(c(/C=N/N5CCN(Cc6cn(CCCCCCO[C@@H]7[C@@H](O[C@H]8O[C@H](CO)[C@@H](O)[C@H](N)[C@H]8O)[C@H](N)C[C@H](N)[C@H]7O[C@H]7O[C@H](CN)[C@@H](O)C[C@H]7N)nn6)CC5)c(O)c4c3C2=O)NC(=O)/C(C)=C\C=C\[C@H](C)[C@H](O)[C@@H](C)[C@@H](O)[C@@H](C)[C@H](OC(C)=O)[C@@H]1C.Cl.Cl.Cl.Cl.Cl | > 32 µg/mL | > 32 µg/mL | > 32 µg/mL | > 128 µg/mL | 16 µg/mL | 4 µg/mL | 256 µg/mL | > 32 µg/mL | 2 µg/mL | ≥ 32 µg/mL | ≥ 256 µg/mL | 256 µg/mL | 256 µg/mL | > 128 µg/mL | 0.066 | <0.07 | > 128 µg/mL | 512 µg/mL | MIC (Pseudomonas aeruginosa [3]): 2 µg/mL; MIC (Pseudomonas aeruginosa [4]): 4 µg/mL; fractional inhibitory concentration index (FICI) (Pseudomonas aeruginosa [7]): 0.15; MIC (Pseudomonas aeruginosa [8]): 4 µg/mL; MIC (Pseudomonas aeruginosa [10]): 256 µg/mL; viability at 48 h, 50 µM [12]: > 70%; viability at 48 h [13]: > 90%; fractional inhibitory concentration index (FICI) (Pseudomonas aeruginosa [15]): <0.156; MIC (Pseudomonas aeruginosa [16]): 2 µg/mL; fractional inhibitory concentration index (FICI) (Pseudomonas aeruginosa [18]): 1.03; fractional inhibitory concentration index (FICI) (Pseudomonas aeruginosa [20]): 1.03; fractional inhibitory concentration index (FICI) (Pseudomonas aeruginosa [21]): 0.06; fractional inhibitory concentration index (FICI) (Pseudomonas aeruginosa [22]): <0.141; fractional inhibitory concentration index (FICI) (Pseudomonas aeruginosa [23]): 0.06; fractional inhibitory concentration index (FICI) (Pseudomonas aeruginosa [24]): <0.375; fractional inhibitory concentration index (FICI) (Pseudomonas aeruginosa [30]): 0.53; viability at 48 h, 50 µM [31]: > 70%; fractional inhibitory concentration index (FICI) (Pseudomonas aeruginosa [33]): <0.133; MIC (Pseudomonas aeruginosa [35]): 1 µg/mL; MIC (Pseudomonas aeruginosa [36]): 128 µg/mL
2 | CO[C@H]1/C=C/O[C@@]2(C)Oc3c(C)c(O)c4c(O)c(c(/C=N/N5CCN(C)CC5)c(O)c4c3C2=O)NC(=O)/C(C)=C\C=C\[C@H](C)[C@H](O)[C@@H](C)[C@@H](O)[C@@H](C)[C@H](OC(C)=O)[C@@H]1C [RIFAMPIN] | > 128 µg/mL | 16 µg/mL (≈ 19.4 µM) | 1 µg/mL (≈ 1.22 µM) | 16 µg/mL (≈ 19.4 µM) | ≤ 0.25 µg/mL | ≤ 0.25 µg/mL | 32 µg/mL (≈ 38.9 µM) | 16 µg/mL (≈ 19.4 µM) | ≤ 0.25 µg/mL | 8 µg/mL (≈ 9.72 µM) | 4 µg/mL (≈ 4.86 µM) | 32 µg/mL (≈ 38.9 µM) | 32 µg/mL (≈ 38.9 µM) | 16 µg/mL (≈ 19.4 µM) | 1.5 | 1.5 | 16 µg/mL (≈ 19.4 µM) | 16 µg/mL (≈ 19.4 µM) | –
